Data as given in ChEMBL document CHEMBL1909046, “DrugMatrix in vitro pharmacology data”.
Where a SMILES comes first, the peptide text is derived from it. Bridges are numbered along the chain shown (N, C = ends). [ ]: non-standard residue; d: D form. The star is where a group is joined. Threoninol(2S,3R) = C[C@@H](O)[C@H](CO)N*

Key:
[1] = DRUGMATRIX: Calcium Channel Type L, Dihydropyridine radioligand binding (ligand: [3H] Nitrendipine); format: cell membranes, Rattus norvegicus, Wistar, Cerebral cortex, Membrane; conditions: Not Active = under 50% inhibition at 10 µM
[2] = molecular target: D(3) dopamine receptor (Homo sapiens, UniProt P35462); assay: DRUGMATRIX: Dopamine D3 radioligand binding (ligand: [3H] Spiperone); format: cell membranes, CHO, Membrane; conditions: cho
[3] = molecular target: T1, Neuropeptide Y receptor type 2 (Homo sapiens, UniProt P49146); format: cell membranes, Membrane; conditions: kan-ts; note: in other assays of this panel Not Active means under 50% inhibition at 10 µM
T1 sequence (P49146 whole entry): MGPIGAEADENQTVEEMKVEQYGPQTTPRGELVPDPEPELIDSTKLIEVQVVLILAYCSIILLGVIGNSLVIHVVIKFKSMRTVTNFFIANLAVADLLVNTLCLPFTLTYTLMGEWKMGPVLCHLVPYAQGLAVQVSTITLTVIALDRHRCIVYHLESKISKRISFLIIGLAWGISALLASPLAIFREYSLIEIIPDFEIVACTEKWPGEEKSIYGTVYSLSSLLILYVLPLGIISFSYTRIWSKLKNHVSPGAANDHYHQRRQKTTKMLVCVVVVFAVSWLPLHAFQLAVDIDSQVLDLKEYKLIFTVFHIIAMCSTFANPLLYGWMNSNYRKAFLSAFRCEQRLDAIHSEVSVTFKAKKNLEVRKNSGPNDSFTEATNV

[4] = molecular target: Kappa-type opioid receptor (Homo sapiens, UniProt P41145); assay: DRUGMATRIX: Opiate kappa (OP2, KOP) radioligand binding (ligand: [3H] Diprenorphine); format: cell membranes, HEK293, Membrane; conditions: hek293; Not Active = under 50% inhibition at 10 µM
[5] = molecular target: T2, Adenosine receptor A3 (Homo sapiens, UniProt P0DMS8); format: cell membranes, CHO-K1, Membrane; conditions: cho-k1;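 note: radioligand binding assay with AB-MECA serving as the labeled ligand; in other assays of this panel Not Active means under 50% inhibition at 10 µM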
T2 sequence (P0DMS8 whole entry): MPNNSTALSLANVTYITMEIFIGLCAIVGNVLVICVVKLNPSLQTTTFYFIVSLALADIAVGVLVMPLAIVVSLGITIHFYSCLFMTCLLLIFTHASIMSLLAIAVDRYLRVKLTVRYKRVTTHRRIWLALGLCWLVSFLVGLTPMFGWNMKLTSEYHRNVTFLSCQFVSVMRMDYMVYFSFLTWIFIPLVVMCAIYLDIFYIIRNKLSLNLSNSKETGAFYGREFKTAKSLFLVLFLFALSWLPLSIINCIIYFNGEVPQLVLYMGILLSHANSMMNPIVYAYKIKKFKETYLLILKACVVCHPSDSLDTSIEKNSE

Chain of Kappa-type opioid receptor (P41145 whole entry): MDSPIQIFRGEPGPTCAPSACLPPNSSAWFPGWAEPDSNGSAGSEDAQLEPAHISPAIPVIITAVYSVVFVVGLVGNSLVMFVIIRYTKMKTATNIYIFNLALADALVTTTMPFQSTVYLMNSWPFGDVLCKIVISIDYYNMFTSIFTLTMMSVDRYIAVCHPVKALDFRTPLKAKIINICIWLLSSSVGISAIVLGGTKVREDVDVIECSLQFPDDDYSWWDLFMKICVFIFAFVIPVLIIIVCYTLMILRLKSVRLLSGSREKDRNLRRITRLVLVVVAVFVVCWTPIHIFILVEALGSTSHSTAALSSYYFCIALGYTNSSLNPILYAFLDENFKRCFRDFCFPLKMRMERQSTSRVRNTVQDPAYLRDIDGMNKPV
Chain of D(3) dopamine receptor (P35462 whole entry): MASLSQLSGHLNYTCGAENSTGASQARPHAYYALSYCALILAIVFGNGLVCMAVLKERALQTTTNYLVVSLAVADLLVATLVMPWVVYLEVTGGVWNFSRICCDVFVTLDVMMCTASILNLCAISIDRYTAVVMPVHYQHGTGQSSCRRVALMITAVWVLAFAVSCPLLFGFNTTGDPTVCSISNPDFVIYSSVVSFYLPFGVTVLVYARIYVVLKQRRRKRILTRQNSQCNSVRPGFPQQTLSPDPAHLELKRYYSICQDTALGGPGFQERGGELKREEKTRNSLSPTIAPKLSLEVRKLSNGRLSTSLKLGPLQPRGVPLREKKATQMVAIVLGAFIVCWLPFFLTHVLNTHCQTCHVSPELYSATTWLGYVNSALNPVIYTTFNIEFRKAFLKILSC

| Compound | IC50 [1] | Ki [1] | IC50 [2] | IC50 [3] | IC50 [4] | IC50 [5] | IC50 ([1]; read-out: IC50) [pM] | Ki ([1]; read-out: Ki) [pM] | Ki [2] | Ki [3] | Ki [4] | Ki [5] |
| --- | --- | --- | --- | --- | --- | --- | --- | --- | --- | --- | --- | --- |
| C[C@](O)(CS(=O)(=O)c1ccc(F)cc1)C(=O)Nc1ccc(C#N)c(C(F)(F)F)c1 [(R)-BICALUTAMIDE] | Not Active | Not Active | Not Active | Not Active | Not Active | Not Active |  |  |  |  |  |  |
| Cc1nccn1CC1CCc2c(c3ccccc3n2C)C1=O (configuration not stated) [ONDANSETRON] | Not Active | Not Active | Not Active | Not Active | Not Active | Not Active |  |  |  |  |  |  |
| CCOC(=O)[C@H](CCc1ccccc1)N[C@H]1CCc2ccccc2N(CC(=O)O)C1=O [BENAZEPRIL] | Not Active | Not Active | Not Active | Not Active | Not Active | Not Active |  |  |  |  |  |  |
| CCCCOc1ccc(OCCCN2CCOCC2)cc1 [PRAMOXINE] | Not Active | Not Active | Not Active | Not Active | Not Active | Not Active |  |  |  |  |  |  |
| COc1cccc2c1C(=O)c1c(O)c3c(c(O)c1C2=O)C[C@@](O)(C(=O)CO)C[C@@H]3O[C@H]1C[C@H](N)[C@H](O)[C@H](C)O1 [DOXORUBICIN] | Not Active | Not Active | Not Active | Not Active | Not Active | Not Active |  |  |  |  |  |  |
| C[C@H]1C[C@H]2[C@@H]3CCC4=CC(=O)C=C[C@]4(C)[C@@]3(Cl)[C@@H](O)C[C@]2(C)[C@@]1(O)C(=O)CO [BECLOMETHASONE] | Not Active | Not Active | Not Active | Not Active | Not Active | Not Active |  |  |  |  |  |  |
| CCN(CC)CCOC(=O)c1ccc(N)cc1 [PROCAINE] | Not Active | Not Active | Not Active | Not Active | Not Active | Not Active |  |  |  |  |  |  |
| O=C(O)Cc1ccccc1Nc1c(Cl)cccc1Cl [DICLOFENAC] | Not Active | Not Active | Not Active | Not Active | Not Active | Not Active |  |  |  |  |  |  |
| CC(C)[C@H]1CC[C@H](C(=O)N[C@H](Cc2ccccc2)C(=O)O)CC1 [NATEGLINIDE] | Not Active | Not Active | Not Active | Not Active | Not Active | Not Active |  |  |  |  |  |  |
| Nc1c(CC(=O)O)cccc1C(=O)c1ccc(Br)cc1 [BROMFENAC] | Not Active | Not Active | Not Active | Not Active | Not Active | Not Active |  |  |  |  |  |  |
| CC(=O)Nc1cccc(O)c1 [METACETAMOL] | Not Active | Not Active | Not Active | Not Active | Not Active | Not Active |  |  |  |  |  |  |
| CCn1cc(C(=O)O)c(=O)c2cc(F)c(N3CCN(C)CC3)cc21 [PEFLOXACIN] | Not Active | Not Active | Not Active | Not Active | Not Active | Not Active |  |  |  |  |  |  |
| COc1ccc2c(c1)c(CC(=O)O)c(C)n2C(=O)c1ccc(Cl)cc1 [INDOMETHACIN] | Not Active | Not Active | Not Active | Not Active | Not Active | Not Active |  |  |  |  |  |  |
| C[C@H]1O[C@@H](O[C@H]2[C@@H](O)C[C@H](O[C@H]3[C@@H](O)C[C@H](O[C@H]4CC[C@@]5(C)[C@H](CC[C@@H]6[C@@H]5CC[C@]5(C)[C@@H](C7=CC(=O)OC7)CC[C@]65O)C4)O[C@@H]3C)O[C@@H]2C)C[C@H](O)[C@@H]1O [DIGITOXIN] | Not Active | Not Active | Not Active | Not Active | Not Active | Not Active |  |  |  |  |  |  |
| C[C@]12CC[C@@H]3c4ccc(O)cc4CC[C@H]3[C@@H]1CC[C@@H]2O [ESTRADIOL] | Not Active | Not Active | Not Active | Not Active | Not Active | Not Active |  |  |  |  |  |  |
| CCOC(=O)C1=C(C)NC(C)=C(C(=O)OC)C1c1cccc([N+](=O)[O-])c1 (configuration not stated) [NITRENDIPINE] |  |  | Not Active | Not Active | Not Active | Not Active | 383 | 246 |  |  |  |  |
| CC1=C(C(=O)O)N2C(=O)[C@@H](NC(=O)[C@H](N)c3ccccc3)[C@H]2SC1 [CEPHALEXIN ANHYDROUS] | Not Active | Not Active | Not Active | Not Active | Not Active | Not Active |  |  |  |  |  |  |
| CN(C)/N=N/c1[nH]cnc1C(N)=O [DACARBAZINE] | Not Active | Not Active | Not Active | Not Active | Not Active | Not Active |  |  |  |  |  |  |
| COc1ccc2c(c1)[C@]13CCCC[C@@H]1[C@H](C2)N(C)CC3 [DEXTROMETHORPHAN] | Not Active | Not Active | Not Active | Not Active | Not Active | Not Active |  |  |  |  |  |  |
| COc1ccccc1C(=O)N1CCC(Cc2ccccc2)CC1 | Not Active | Not Active | Not Active | Not Active | Not Active | Not Active |  |  |  |  |  |  |
| C=C1CC[C@H](O)C/C1=C/C=C1\CCC[C@]2(C)[C@@H]([C@H](C)CCCC(C)C)CC[C@@H]12 [CHOLECALCIFEROL] | Not Active | Not Active | Not Active | Not Active | Not Active | Not Active |  |  |  |  |  |  |
| COc1cc2c(c3oc(=O)c4c(c13)CCC4=O)[C@@H]1C=CO[C@@H]1O2 [AFLATOXIN] | Not Active | Not Active | Not Active | Not Active | Not Active | Not Active |  |  | Not Active | Not Active | Not Active | Not Active |
| COc1ccc2cc([C@H](C)C(=O)O)ccc2c1 [NAPROXEN] | Not Active | Not Active | Not Active | Not Active | Not Active | Not Active |  |  |  |  |  |  |
| CC(C)Cc1ccc(C(C)C(=O)O)cc1 (configuration not stated) [IBUPROFEN] | Not Active | Not Active | Not Active | Not Active | Not Active | Not Active |  |  |  |  |  |  |
| CC(C)(C(=O)c1cccnc1)c1cccnc1 [METYRAPONE] | Not Active | Not Active | Not Active | Not Active | Not Active | Not Active |  |  |  |  |  |  |
| Cc1ncc([N+](=O)[O-])n1CCO [METRONIDAZOLE] | Not Active | Not Active | Not Active | Not Active | Not Active | Not Active |  |  |  |  |  |  |
| C[C@@H](O)[C@H](CO)NC(=O)[C@@H]1CSSC[C@H](NC(=O)[C@H](N)Cc2ccccc2)C(=O)N[C@@H](Cc2ccccc2)C(=O)N[C@H](Cc2c[nH]c3ccccc23)C(=O)N[C@@H](CCCCN)C(=O)N[C@@H]([C@@H](C)O)C(=O)N1 (H-[dF]CF[dW]KTC-{Threoninol(2S,3R)}; disulfide 2-7) | Not Active | Not Active | Not Active | Not Active | Not Active | Not Active |  |  |  |  |  |  |
| COc1ccc2[nH]c([S+]([O-])Cc3ncc(C)c(OC)c3C)nc2c1 (configuration not stated) [OMEPRAZOLE] | Not Active | Not Active | Not Active | Not Active | Not Active | Not Active |  |  |  |  |  |  |
